Assay results as given in paper doi:10.1101/2024.08.19.608619, “Discovery of potent SARS-CoV-2 nsp3 macrodomain inhibitors uncovers lack of translation to cellular antiviral response” (bioRxiv, 2024).
Where “and” joins values, the source holds several entries; their conditions need not be identical. Equal entries are not always repeated.

What was measured:
AR(h) = assay: In vitro CEREP profiling, AR(h) (agonist radioligand); format: binding, human; settings: test compound concentration 10 uM
Description: (§1) Supplement media-1.zip/Safety_Panel_Profile.csv, table | column: perc_inhibition

KV channel = assay: In vitro CEREP profiling, KV channel (antagonist radioligand); format: binding; settings: test compound concentration 10 uM
Description: as §1

[1] = In vitro mouse hepatocyte stability; format: in vitro ADME
Description: (§2) Supplement media-1.zip/Hepatocyte_Stability.csv, table | column: clint; t_half

MERS-CoV = assay: microbe, parasite or virus in culture; format: cell-based; settings: Vero E6/TMPRSS2 MERS-CoV antiviral effect with P-gp inhibitor
H1 (h) = target: T1, H1 (h) (Homo sapiens, UniProt P35367); assay: In vitro CEREP profiling, H1 (h) (antagonist radioligand); format: binding; settings: test compound concentration 10 uM
T1 construct: purchased Eurofins Cerep (SafetyScreen44), recognised from the panel format
T1 sequence (P35367 whole entry): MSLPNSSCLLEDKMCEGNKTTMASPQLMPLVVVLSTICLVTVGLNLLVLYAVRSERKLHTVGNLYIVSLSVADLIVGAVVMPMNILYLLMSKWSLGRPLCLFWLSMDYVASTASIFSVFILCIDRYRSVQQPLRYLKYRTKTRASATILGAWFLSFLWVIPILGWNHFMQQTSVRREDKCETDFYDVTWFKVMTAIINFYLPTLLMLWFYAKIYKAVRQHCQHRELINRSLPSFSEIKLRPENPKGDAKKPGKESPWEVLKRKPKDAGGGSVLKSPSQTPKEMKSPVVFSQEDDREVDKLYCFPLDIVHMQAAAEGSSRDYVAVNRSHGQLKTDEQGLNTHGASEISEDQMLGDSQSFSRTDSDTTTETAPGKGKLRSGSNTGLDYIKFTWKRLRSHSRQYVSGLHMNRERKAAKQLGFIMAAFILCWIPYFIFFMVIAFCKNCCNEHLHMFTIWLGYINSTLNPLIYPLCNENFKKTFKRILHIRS
Description: as §1

[2] = In vitro human hepatocyte stability; format: in vitro ADME
Description: as §2

ETA (h) = target: T2, ETA (h) (Homo sapiens, UniProt P25101); assay: In vitro CEREP profiling, ETA (h) (agonist radioligand); format: binding; settings: test compound 10 uM
T2 construct: purchased Eurofins Cerep (SafetyScreen44), recognised from the panel format
T2 sequence (P25101 21-427): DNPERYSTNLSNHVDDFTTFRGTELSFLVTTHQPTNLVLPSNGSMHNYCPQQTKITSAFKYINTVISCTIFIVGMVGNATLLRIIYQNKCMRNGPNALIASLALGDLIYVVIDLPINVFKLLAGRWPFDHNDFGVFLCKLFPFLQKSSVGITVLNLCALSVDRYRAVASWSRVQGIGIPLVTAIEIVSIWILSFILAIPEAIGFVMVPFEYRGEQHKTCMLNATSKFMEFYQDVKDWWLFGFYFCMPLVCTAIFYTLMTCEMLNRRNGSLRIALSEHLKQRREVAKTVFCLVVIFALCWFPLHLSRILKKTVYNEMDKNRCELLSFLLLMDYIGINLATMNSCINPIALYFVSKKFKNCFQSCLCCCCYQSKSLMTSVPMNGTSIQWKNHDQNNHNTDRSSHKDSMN
Description: as §1

MAO-A = target: T3, MAO-A (Rattus norvegicus, UniProt P21396); assay: In vitro CEREP profiling, MAO-A (antagonist radioligand); format: binding; settings: test compound concentration 10 uM
T3 construct: purchased Eurofins Cerep (SafetyScreen44), recognised from the panel format
T3 sequence (P21396 1-526): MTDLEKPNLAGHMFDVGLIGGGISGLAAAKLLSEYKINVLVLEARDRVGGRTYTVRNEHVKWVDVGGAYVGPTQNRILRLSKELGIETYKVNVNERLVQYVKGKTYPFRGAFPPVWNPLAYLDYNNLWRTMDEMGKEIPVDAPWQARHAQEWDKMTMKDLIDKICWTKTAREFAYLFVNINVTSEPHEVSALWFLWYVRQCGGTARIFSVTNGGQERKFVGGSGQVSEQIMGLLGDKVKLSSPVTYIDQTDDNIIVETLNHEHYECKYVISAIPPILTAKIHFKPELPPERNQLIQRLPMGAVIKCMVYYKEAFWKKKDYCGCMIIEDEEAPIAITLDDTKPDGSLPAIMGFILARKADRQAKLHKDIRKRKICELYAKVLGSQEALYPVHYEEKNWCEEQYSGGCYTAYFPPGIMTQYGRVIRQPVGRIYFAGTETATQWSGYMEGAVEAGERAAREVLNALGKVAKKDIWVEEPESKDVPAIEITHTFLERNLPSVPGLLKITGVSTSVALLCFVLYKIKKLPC
Description: as §1

[3] = target: T4, norepinephrine transporter (h) (Homo sapiens, UniProt P23975); assay: In vitro CEREP profiling, norepinephrine transporter (h) (antagonist radioligand); format: binding; settings: test compound concentration 10 uM
T4 construct: purchased Eurofins Cerep (SafetyScreen44), recognised from the panel format
T4 sequence (P23975 whole entry): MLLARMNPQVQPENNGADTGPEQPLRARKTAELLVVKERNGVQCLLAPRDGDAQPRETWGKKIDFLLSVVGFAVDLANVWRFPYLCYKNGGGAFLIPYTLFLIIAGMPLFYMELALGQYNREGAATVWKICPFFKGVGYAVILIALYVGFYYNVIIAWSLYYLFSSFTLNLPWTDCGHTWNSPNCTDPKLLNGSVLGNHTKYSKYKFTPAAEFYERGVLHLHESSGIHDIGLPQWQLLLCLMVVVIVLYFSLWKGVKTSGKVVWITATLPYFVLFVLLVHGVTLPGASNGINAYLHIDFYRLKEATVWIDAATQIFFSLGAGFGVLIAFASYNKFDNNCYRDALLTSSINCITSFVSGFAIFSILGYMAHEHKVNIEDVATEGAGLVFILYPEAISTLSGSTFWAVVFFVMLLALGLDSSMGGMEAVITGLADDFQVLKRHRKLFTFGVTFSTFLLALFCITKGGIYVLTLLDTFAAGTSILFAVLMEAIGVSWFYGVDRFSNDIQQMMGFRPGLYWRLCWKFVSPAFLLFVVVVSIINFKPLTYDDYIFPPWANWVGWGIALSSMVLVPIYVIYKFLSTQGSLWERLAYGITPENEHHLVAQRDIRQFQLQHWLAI
Description: as §1

[4] = Hepatic microsomal stability, HLM; format: in vitro ADME, human; settings: In vitro human liver microsomal stability
V1a (h) = target: T5, V1a (h) (Homo sapiens, UniProt P37288); assay: In vitro CEREP profiling, V1a (h) (agonist radioligand); format: binding; settings: test compound concentration 10 uM
T5 construct: purchased Eurofins Cerep (SafetyScreen44), recognised from the panel format
T5 sequence (P37288 whole entry): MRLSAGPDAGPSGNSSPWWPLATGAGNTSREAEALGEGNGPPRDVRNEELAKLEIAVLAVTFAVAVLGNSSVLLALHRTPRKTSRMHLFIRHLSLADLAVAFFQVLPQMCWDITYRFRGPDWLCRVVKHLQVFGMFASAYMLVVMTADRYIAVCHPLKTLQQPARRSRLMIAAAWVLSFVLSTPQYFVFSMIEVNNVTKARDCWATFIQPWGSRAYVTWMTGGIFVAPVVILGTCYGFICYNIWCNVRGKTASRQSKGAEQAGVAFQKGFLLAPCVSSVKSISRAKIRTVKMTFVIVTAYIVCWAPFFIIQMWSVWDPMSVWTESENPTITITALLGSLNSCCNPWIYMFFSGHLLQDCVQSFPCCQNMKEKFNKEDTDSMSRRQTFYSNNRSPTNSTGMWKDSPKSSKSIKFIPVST
Description: as §1

NMDA = assay: In vitro CEREP profiling, NMDA (antagonist radioligand); format: binding; settings: test compound 10 uM
Description: as §1

[5] = In vitro dog liver microsomal stability; format: in vitro ADME
Description: Supplement media-1.zip/Hepatic_Microsomal_Stability.csv, table | column: clint; t_half

[6] = tested on: Ca2+ channel (L, dihydropyridine site); assay: In vitro CEREP profiling, Ca2+ channel (L, dihydropyridine site) (antagonist radioligand); format: binding; settings: test compound concentration 10 uM
Description: as §1

PDE4D2 (h) = target: T6, PDE4D2 (h) (Homo sapiens, UniProt Q08499); assay: In vitro CEREP profiling, PDE4D2 (h); format: biochemical; settings: test compound concentration 10 uM; Enzyme and Cell-based assays
T6 construct: purchased Eurofins Cerep (SafetyScreen44), recognised from the panel format
T6 sequence (Q08499 303-809): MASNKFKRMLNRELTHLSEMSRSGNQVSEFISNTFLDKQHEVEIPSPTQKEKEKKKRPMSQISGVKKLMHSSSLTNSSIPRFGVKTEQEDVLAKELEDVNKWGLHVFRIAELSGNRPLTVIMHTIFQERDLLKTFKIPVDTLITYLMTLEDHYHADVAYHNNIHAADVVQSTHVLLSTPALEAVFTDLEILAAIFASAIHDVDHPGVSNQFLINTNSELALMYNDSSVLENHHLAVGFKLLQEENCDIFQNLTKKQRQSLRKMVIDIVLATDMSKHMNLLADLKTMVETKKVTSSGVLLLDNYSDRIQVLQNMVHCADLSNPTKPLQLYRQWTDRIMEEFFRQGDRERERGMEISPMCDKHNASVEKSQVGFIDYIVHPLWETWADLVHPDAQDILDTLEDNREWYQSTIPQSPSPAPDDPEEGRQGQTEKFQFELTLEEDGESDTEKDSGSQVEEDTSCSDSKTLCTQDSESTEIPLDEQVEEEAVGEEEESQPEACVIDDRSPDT
Description: as §1

Protein binding = format: in vitro ADME
Description: Supplement media-1.zip/Protein_Binding.csv, table | column: fu; perc_bound; perc_free; perc_recovered

mu (MOP) (h) = target: T7, mu (MOP) (h) (Homo sapiens, UniProt P35372); assay: In vitro CEREP profiling, mu (MOP) (h) (agonist radioligand); format: binding; settings: test compound concentration 10 uM
T7 construct: purchased Eurofins Cerep (SafetyScreen44), recognised from the panel format
T7 sequence (P35372 whole entry): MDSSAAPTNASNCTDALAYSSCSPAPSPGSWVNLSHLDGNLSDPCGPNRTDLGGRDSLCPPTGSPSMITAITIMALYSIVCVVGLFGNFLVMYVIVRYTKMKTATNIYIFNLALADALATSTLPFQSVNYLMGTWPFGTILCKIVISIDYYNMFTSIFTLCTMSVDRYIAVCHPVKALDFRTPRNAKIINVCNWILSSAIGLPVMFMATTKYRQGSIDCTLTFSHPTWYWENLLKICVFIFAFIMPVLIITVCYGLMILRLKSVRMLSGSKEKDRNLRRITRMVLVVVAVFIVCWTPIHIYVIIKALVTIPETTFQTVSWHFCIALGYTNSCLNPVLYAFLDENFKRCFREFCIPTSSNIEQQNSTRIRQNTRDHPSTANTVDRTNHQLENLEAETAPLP
Description: as §1

[7] = In vitro dog plasma protein binding
[8] = In vitro fetal calf serum protein binding
[9] = In vitro human plasma protein binding
[10] = In vitro mouse plasma protein binding
[11] = In vitro rat plasma protein binding

COc1ccc([C@H](Cc2nnn[nH]2)NC(=O)c2ncnc3[nH]ccc23)cc1 [ASAP-0015381]
perc_inhibition (% inhibition of the binding of a ligand specific for each target) (AR(h)): -2%
perc_inhibition (% inhibition of the binding of a ligand specific for each target) (KV channel): -1%
clint [1]: 4.6 uL/min/1E6 cells
t_half [1]: 151.0 min
perc_max_measured (MERS-CoV; maximum measured response of dose series): 110.958% and 111.344%
perc_min_measured (MERS-CoV; minimum measured response of dose series): 85.891% and 86.764%
EC50 (MERS-CoV; read-out: ec50): > 5 µM
EC90 (MERS-CoV; read-out: ec90): > 5 µM
perc_inhibition (% inhibition of the binding of a ligand specific for each target) (H1 (h)): -4%
clint [2]: < 3.0 uL/min/1E6 cells
t_half [2]: > 231.0 min
perc_inhibition (% inhibition of the binding of a ligand specific for each target) (ETA (h)): 2%
perc_inhibition (% inhibition of the binding of a ligand specific for each target) (MAO-A): 0%
perc_inhibition (% inhibition of the binding of a ligand specific for each target) [3]: -5%
clint [4]: 2.0 µL/min/mg
perc_remaining [4]: 105.597%
t_half [4]: 1085.642 min
perc_remaining_no_cofactor ([4]; no cofactor): 84.68%
perc_inhibition (% inhibition of the binding of a ligand specific for each target) (V1a (h)): 5%
perc_inhibition (% inhibition of the binding of a ligand specific for each target) (NMDA): 9%
clint [5]: < 5.0 µL/min/mg
t_half [5]: > 139.0 min
perc_inhibition (% inhibition of the binding of a ligand specific for each target) [6]: -22%
perc_inhibition: % inhibition of control enzyme activity, PDE4D2 (h) (PDE4D2 (h)): 41%
fu (Protein binding; [7]): 0.106
perc_bound (Protein binding; [7]): 89.4%
perc_free (Protein binding; [7]): 10.6%
perc_recovered (Protein binding; [7]): 90.64%
fu (Protein binding; [8]): 0.061
perc_bound (Protein binding; [8]): 93.9%
perc_free (Protein binding; [8]): 6.07%
perc_recovered (Protein binding; [8]): 101.6%
fu (Protein binding; [9]): 0.01
perc_bound (Protein binding; [9]): 99.0%
perc_free (Protein binding; [9]): 1.01%
perc_recovered (Protein binding; [9]): 102.0%
fu (Protein binding; [10]): 0.306
perc_bound (Protein binding; [10]): 69.4%
perc_free (Protein binding; [10]): 30.6%
perc_recovered (Protein binding; [10]): 84.29%
fu (Protein binding; [11]): 0.047
perc_bound (Protein binding; [11]): 95.3%
perc_free (Protein binding; [11]): 4.69%
perc_recovered (Protein binding; [11]): 100.2%
perc_inhibition (% inhibition of the binding of a ligand specific for each target) (mu (MOP) (h)): -3%
